Experimental data reported in US20150111852A1, “1-Di(sec-butyl)-phosphinoyl-pentane (dapa-2-5) as a topical agent” (priority 2013, published 2015).

Experiments:
[1] = tested on: isolated TRPM8 knock-out mouse vagus; experiment: Capsaicin-induced depolarization of isolated vagus nerve, TRPM8 knock-out; conditions: 1 mg/mL, capsaicin 1 μM, TRPM8 KO, read-out: per cent inhibition of capsaicin-induced depolarization
Method: (§1) To examine the ability of DAPA-2-5 to suppress sensory discomfort, it was tested in an animal model developed at the Imperial College, London, U.K. [Birrell et al. TRPA1 agonists evoke coughing in guinea pig and human volunteers. Amer. J. Respiratory and Critical Care Medicine 180, 1042-7, 2009; Patel et al., Inhibition of guinea-pig and human sensory nerve activity and the cough reflex in guinea-pigs by cannabinoid (CB2) receptor activation. British J. Pharmacol. 140, 261-8 2003]. In this in vitro assay, segments of the vagus nerve are placed on a platform and the electrical activity is recorded after topical application of capsaicin. Capsaicin is a known irritant that elicits pain when it is applied to the skin and it will depolarize the isolated vagus. The ability of substances to inhibit this capsaicin-induced depolarization is measured.
(§2) Briefly, segments of vagus nerve, caudal to the nodose ganglion, were removed from mice with fine forceps and segments placed in oxygenated Krebs solution and bubbled with 95% O2/5% CO2. The desheathed nerve trunk was mounted in a ‘grease-gap’ recording chamber and constantly superfused with Krebs solution with a flow rate of approximately 2 mL/min, and the electrical activity of the nerve monitored with electrodes. The temperature of the perfusate was kept constant at 37° C. by a water bath. […]

[2] = Repeated-dose toxicity in male rats (organ weights, histology); assay type: in vivo, rat
Method: DAPA-2-7, dissolved in 3% ethanol/97% 1,2-propanediol, or vehicle alone, was administered subcutaneously to male rats (N=8 per group) at 30 mg/kg body weight daily for 7 days, and on the 8th day, the animals were euthanized with sodium pentobarbital and the major organs (body, heart, liver, lungs, kidney, testes, brain) were removed and weighed. Heart tissues (ventricle and heart valves) and liver samples were stained with hematoxylin and eosin and the histology examined.
In a large scale trial, DAPA-2-5 was administered via drinking water to male rats for 40 days. The DAPA-2-5 was mixed with condensed milk [8.5%] at 0.5 mg/mL and liquid consumption was monitored. The averaged intake in the treated group [N=12 rats] was 41 mg/kg body weight/day for 40 days. The vehicle alone group was N=11.

[3] = target: T1, ASIC3 (acid-sensing) (Homo sapiens, UniProt Q9UHC3); experiment: Patch-clamp in transfected cells, ASIC3; assay type: cell-based; conditions: DAPA-2-5 at 5 μM; positive control amiloride
T1 construct: expressed in transfected cells
T1 sequence (Q9UHC3 1-531): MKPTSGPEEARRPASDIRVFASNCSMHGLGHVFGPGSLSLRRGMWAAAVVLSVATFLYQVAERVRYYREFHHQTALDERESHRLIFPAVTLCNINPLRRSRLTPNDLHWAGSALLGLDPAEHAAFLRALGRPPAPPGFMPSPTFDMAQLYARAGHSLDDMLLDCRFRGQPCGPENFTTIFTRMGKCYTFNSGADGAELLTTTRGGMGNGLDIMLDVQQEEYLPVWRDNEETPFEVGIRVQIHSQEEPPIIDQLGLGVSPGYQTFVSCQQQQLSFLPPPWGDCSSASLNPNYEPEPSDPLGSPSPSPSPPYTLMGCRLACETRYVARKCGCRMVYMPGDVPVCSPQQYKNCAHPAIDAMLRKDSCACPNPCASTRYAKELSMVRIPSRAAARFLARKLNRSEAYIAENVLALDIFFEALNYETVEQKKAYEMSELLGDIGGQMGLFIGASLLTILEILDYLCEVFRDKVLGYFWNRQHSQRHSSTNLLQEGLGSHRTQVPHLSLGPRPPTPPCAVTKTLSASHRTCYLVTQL

[4] = tested on: mouth and throat; experiment: Sensory activity of ODT-C on volunteers (double-blind, modified ASHRAE scale); assay type: in vivo, human; conditions: doses higher than 1.5 mg
[5] = tested on: isolated normal mouse vagus; experiment: Capsaicin-induced depolarization of isolated vagus nerve, wild type
Method: as §1, §2

[6] = HPLC content of DAPA-2-5 recovered from disintegrated prototype tablets; assay type: physicochemical
Method: A high pressure liquid chromatography [HPLC] method was developed for analysis of DAPA-2-5 in aqueous solution. The chromatographic conditions were: Column: Waters XTerra RP18, 150×4.6 mm, 3.5 μm, Column temperature: 40° C., Mobile phase : 0.1% Tetrabutyl ammonium and Tri fluro acetic acid in 900mL water and 100 mL Acetonitrile, Flow: 1.0 mUmin, Diluent : Water, Wavelength: 226 nm, Injection Volume: 100 μL, Run time: 10 min, Standard Preparation: 0.75 mg/mL of DAPA-2-5 in water. Sample Preparation: Equivalent to 0.75 mg/mL of DAPA-2-5 in water. Prototype tablets containing DAPA-2-5 were disintegrated and the content of DAPA-2-5 measured. […] It is likely that the non-eluted DAPA-2-5 remains tightly bound to sites on the Neusilin US2.

[7] = tested on: Strains TA 98 and TA100; experiment: Ames test; assay type: cell-based; conditions: Strains TA 98 and TA100, with and without liver activation
Method: Preliminary toxicological studies were conducted on DAPA-2-5 and DAPA-2-7.

[8] = target: T2, hNav1.7 (sodium channels) (Homo sapiens, UniProt Q15858); experiment: Patch-clamp in transfected cells, hNav1.7; assay type: cell-based; conditions: DAPA-2-5 at 5 μM; positive control lidocaine
T2 construct: expressed in transfected cells

[9] = target: T3, TRPV1 channels (human TRPV1 gene expressed in HEK293 cells) (Homo sapiens, UniProt Q8NER1); experiment: TRPV1 agonist assay; assay type: cell-based
T3 construct: expressed in transfected cells; host or cells: HEK293 cells
Method: To examine the specificity of the test compounds, further studies were conducted on TRPV1 channels (human TRPV1 gene expressed in HEK293 cells) and TRPA1 channels (human TRPA1 gene expressed in CHO cells). The test cells were Chinese Hamster Ovary (CHO) cells or Human Embyronic Kidney (HEK) 293 cells transfected with human TRPV1 or TRPA1 cDNAs.

[10] = tested on: capsaicin-induced cough; experiment: Guinea pig cough model, capsaicin mist; assay type: in vivo; conditions: capsaicin 0.1 mM mist, identical design
Method: This study was repeated with an identical design, but using capsaicin 0.1 mM mist as the stimulus.

[11] = tested on: throat, airway and chest discomfort; experiment: Case studies with DAPA-2-5 tablets in human subjects; assay type: in vivo; conditions: for precipitation of “ice cream headache” (Case Study 5): ODT-A 2 mg
[12] = male rats, 30 mg/kg subcutaneously daily for 7 days

T3 sequence (Q8NER1 whole entry): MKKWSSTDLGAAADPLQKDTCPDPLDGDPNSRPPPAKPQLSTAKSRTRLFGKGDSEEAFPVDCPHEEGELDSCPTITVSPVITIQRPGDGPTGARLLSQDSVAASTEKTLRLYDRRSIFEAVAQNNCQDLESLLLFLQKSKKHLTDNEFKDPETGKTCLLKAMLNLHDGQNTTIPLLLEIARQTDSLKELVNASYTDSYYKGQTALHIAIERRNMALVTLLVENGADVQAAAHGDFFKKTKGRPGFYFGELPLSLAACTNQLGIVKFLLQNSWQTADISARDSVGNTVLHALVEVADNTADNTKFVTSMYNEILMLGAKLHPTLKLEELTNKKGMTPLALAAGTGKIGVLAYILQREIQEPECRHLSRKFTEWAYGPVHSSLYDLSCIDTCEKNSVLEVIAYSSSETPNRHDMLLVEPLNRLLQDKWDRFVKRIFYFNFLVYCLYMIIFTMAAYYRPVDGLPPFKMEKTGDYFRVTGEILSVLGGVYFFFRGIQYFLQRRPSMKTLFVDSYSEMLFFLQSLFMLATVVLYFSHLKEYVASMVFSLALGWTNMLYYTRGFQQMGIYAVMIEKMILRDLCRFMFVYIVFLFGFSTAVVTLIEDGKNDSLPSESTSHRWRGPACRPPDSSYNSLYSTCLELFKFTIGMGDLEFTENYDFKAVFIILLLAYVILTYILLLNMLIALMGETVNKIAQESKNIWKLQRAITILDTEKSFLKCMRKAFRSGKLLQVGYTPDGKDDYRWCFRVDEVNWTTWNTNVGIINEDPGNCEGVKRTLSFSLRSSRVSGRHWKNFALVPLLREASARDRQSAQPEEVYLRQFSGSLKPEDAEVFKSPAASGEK
T2 sequence (Q15858 whole entry): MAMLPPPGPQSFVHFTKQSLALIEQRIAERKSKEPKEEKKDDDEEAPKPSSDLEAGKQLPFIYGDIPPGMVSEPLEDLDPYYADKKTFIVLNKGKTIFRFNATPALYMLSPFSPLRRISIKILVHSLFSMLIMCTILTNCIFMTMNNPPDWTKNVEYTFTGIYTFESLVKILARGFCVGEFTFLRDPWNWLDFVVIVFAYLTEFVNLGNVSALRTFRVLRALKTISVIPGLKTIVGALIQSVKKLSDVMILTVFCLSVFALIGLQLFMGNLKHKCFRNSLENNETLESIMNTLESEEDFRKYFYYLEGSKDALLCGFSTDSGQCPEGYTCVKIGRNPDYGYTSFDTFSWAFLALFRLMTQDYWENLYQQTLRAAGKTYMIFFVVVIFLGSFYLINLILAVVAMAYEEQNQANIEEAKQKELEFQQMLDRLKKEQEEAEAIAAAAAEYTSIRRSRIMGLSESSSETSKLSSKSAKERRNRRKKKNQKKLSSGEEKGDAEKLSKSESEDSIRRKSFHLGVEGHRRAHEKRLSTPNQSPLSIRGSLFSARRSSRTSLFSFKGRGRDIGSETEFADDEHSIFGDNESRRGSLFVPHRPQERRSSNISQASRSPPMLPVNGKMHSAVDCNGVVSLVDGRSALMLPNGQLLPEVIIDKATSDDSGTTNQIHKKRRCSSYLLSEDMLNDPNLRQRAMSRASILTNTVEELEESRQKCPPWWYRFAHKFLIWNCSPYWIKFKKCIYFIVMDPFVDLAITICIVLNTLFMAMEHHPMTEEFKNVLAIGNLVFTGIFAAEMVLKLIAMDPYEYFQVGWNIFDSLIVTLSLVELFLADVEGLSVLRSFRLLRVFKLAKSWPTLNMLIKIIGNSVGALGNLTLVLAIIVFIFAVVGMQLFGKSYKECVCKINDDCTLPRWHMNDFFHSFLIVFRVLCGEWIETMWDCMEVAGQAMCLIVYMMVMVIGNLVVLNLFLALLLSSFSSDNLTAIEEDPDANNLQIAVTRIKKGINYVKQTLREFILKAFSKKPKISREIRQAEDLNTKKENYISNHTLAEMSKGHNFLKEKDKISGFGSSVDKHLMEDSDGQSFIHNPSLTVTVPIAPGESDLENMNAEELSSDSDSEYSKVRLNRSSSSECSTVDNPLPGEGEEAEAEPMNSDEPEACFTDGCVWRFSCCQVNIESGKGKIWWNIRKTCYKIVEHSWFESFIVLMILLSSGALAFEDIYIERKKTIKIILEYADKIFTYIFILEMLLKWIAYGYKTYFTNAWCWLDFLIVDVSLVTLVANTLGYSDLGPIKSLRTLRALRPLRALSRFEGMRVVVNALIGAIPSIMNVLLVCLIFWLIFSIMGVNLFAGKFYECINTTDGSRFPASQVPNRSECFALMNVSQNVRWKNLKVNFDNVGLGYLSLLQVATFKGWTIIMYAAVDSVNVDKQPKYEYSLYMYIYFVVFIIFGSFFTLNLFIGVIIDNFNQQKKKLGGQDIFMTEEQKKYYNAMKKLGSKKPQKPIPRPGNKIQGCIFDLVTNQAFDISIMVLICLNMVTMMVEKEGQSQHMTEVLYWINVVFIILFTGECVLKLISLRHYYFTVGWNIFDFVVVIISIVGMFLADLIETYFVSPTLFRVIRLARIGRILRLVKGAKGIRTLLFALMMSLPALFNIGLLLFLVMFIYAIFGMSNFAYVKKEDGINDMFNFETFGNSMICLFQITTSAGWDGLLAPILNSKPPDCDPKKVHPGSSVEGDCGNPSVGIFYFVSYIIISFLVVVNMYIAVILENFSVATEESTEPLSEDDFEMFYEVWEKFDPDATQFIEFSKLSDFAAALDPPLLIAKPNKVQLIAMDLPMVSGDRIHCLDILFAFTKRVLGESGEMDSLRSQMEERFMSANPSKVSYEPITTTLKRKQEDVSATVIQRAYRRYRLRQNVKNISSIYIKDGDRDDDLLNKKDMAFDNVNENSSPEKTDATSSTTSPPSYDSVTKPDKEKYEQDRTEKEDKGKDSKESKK

In the case of `CCCCCP(=O)(C(C)CC)C(C)CC` (stereo not shown) [DAPA-2-5, 1-Di(sec-butyl)-phosphinoyl-pentane], the inhibition at 1000 µg/mL [1] is reported as about 0%, the “difference in organ weights or histology vs vehicle” value ([2]; male rats, via drinking water, averaged intake 41 mg/kg body weight/day for 40 days) is reported as “no statistical difference” and the “difference in organ weights or histology vs vehicle” value ([2]; rats, 20 mg/kg perioral by gavage for 7 days) is reported as “no statistical difference”. For the same compound, the “agonist or antagonist activity, ASIC3” value [3] was “No agonist or antagonist activities”, the “ODT-C test results at higher doses” value [4] was “higher than 1.5 mg “penetrating cold” sensations” and the “depolarization evoked by the compound itself” value [5] was “did not evoke depolarization”. The inhibition at 1000 µg/mL ([5]; Mus musculus, 10 min, 1 mg/mL for 10 min, capsaicin 1 μM, read-out: per cent inhibition of capsaicin-induced depolarization) was about 60%, the “DAPA-2-5 recovered from the aqueous phase” value [6] was 86±2% and the “mutagenic in the Ames test” value [7] was “Neither of these compounds was mutagenic”. For the same compound, the “agonist or antagonist activity, hNav1.7” value [8] was “No agonist or antagonist activities”, the “times less potent than DAPA-2-6 in stimulating TRPV1” value [9] was 54 and the “effect on capsaicin-induced coughing” value [10] was “inhibited the capsaiscin-induced coughing”. The “effective in reducing throat discomfort (Case Study 7)” value ([11]; ODT-A 1.0 mg as needed, six women) was 100%, the “hoarseness and loss of voice (Case Study 6)” value ([11]; ODT-A 1 mg, twenty trials) was “immediate relief from throat discomfort” and the “choking and gagging in asthma (Case Study 4)” value ([11]; ODT-A 1 mg, two subjects) was “effective in controlling choking and gagging”. For the same compound, the “cough in cough variant asthma (Case Study 4)” value ([11]; ODT-A 1.5 mg, two or three tablets at a time, after a week's trial) was “completely under control”, the “precipitation of “ice cream headache” (Case Study 5)” value [11] was “Neither of the ODT precipitated a headache response” and the “relief of hoarseness (Case Study 1)” value ([11]; ODT-A, 1 to 1.5 mg, person, five occasions) was “fully effective in relieving their hoarseness”. For the same compound, the “time to disappearance of chest discomfort (Case Study 8, second person)” value ([11]; four tablets with water) was “about 10 min”, the “snoring (Case Study 9)” value ([11]; tablets 2 mg before sleep) was “stopped snoring” and the “time to relief of chest discomfort (Case Study 8)” value ([11]; three tablets, each 1.5 mg) was at most 5 min. The “hiccups (Case Study 5)” value ([11]; two DAPA-2-5 ODT) was “stopped within several min”, the “throat discomfort from acid reflux (Case Study 5)” value ([11]; two DAPA-2-5 ODT) was “immediately controlled their throat discomfort from acid reflux” and the “nasal congestion (Case Study 2)” value ([11]; two tablets of 1 mg or one of 1.5 mg, with viral cold) was “effective remedy”.

For `CCCCCCCP(=O)(C(C)CC)C(C)CC` (stereo not shown) [DAPA-2-7, 1-Di(sec-butyl) phosphinoyl-heptane], the “differences in body or organ weights vs vehicle” value [2, 12] was “no significant differences”, the “heart and liver histology” value [2, 12] was “normal” and the “mutagenic in the Ames test” value [7] was “Neither of these compounds was mutagenic”. For the same compound, the “precipitation of “ice cream headache” (Case Study 5)” value [11] was “Neither of the ODT precipitated a headache response”.
